Assay results reported in paper PMC11284788, “NN1213 – A Potent, Long-Acting, and Selective Analog of Human Amylin” (Journal of Medicinal Chemistry, 2024).
Where two headings read alike, the source gives them in different places. Numbered stars: 1 amine (or outer) side, 2 acyl side, 3 side chain; on linkers, the order of the positions; unused ones are H or OH. Bridge positions count the residues as written; N and C are the ends. Peptide text beside a SMILES is read from it. * marks the point of attachment. C20 diacid = O=C(O)CCCCCCCCCCCCCCCCCCC(=O)*; γGlu = O=C(O)[C@H](CCC(=O)[*:2])N[*:1]

Columns and labels:
[1] = Solubility versus pH profile
hAMY3R [2] = molecular target: T1, hAMY3R (Homo sapiens, UniProt O60896+P30988); experiment: scintillation proximity binding assay, hAMY3R membranes; set-up: expressed in transfected cells; host or cells: BHK tk-ts 13, transient co-transfection; membranes for the SPA, whole cells for the species-specific assays; conditions: for ratio hCTR/hAMY3R: ratio of binding IC50 values
T1 sequence (P30988 25-474): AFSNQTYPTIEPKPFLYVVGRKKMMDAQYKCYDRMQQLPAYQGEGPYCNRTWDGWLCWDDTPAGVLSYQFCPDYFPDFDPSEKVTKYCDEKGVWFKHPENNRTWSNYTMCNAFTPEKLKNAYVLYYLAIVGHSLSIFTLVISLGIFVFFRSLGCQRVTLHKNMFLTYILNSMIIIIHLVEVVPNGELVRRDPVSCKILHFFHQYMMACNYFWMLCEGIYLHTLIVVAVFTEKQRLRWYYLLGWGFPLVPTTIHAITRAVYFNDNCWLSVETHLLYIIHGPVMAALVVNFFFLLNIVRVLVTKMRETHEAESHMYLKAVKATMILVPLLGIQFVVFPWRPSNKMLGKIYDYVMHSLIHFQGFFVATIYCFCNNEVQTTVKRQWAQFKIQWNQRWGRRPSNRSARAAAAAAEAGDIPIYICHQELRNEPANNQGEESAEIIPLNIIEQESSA
T1 sequence (O60896 24-148 partner): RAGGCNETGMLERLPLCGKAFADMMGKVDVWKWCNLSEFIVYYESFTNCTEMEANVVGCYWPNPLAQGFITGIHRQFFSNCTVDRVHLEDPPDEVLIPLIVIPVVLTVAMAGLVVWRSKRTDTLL
Protocol: The apparent binding affinities were determined using a scintillation proximity assay with beads from PerkinElmer and cell membranes containing the AMY3R or CTRs. […] Membranes were harvested and membranes were prepared and kept at −80 °C until use. The assay was performed in a 384-well Optiplate (PerkinElmer). Membranes were mixed with scintillation proximity assay beads in a 1:1 ratio. […] Samples were analyzed on a TopCounter (Packard). The IC50 values were calculated using GraphPad Prism. See Supporting Information S7: SAR Screening Assay Methods (Binding Assays (Human and Rat)) for more information.
Binding Assays (Human and Rat). Brief descriptions of the methods used to determine binding affinities for SAR analysis are described below. Curves and IC50 values were plotted and calculated in GraphPad Prism using nonlinear regression (one site binding competition analysis), with pIC50 values […]
values were used to calculate the binding affinity ratios in order to express the selectivity of compounds for the AMY3R versus the CTR.
CTR Binding Assay. The binding assay was performed using scintillation proximity assay (SPA) beads (RPNQ0001) from PerkinElmer and cell membranes containing either the hCTR or rCTR. BHK […]
(§1) Membranes were prepared in the following way: the cells were rinsed with PBS and incubated with Versene for approximately 5 min before harvesting. The cells were flushed with PBS and the cell-suspension was centrifuged for 5 min at 1000 rpm. Cells were homogenized (Ultra Turrax) in a buffer […]
containing 20 mM Na-HEPES and 0.1 mM EDTA (pH 7.4, buffer 2). The resulting pellet was re-suspended in buffer 2 and protein concentration was measured (BCA protein assay, Pierce). The homogenate was kept cold during the whole procedure. The membranes were stored at –80 °C until […]
The binding assay was performed in a 384-well Optiplate (PerkinElmer) in a total volume of 40 μL.
Membranes were mixed with SPA beads in a 1:1 ratio. […]
mg/well. Test compounds were dissolved in DMSO and further diluted in assay buffer (50 mM HEPES, pH 7.4, 1 mM CaCl2, 5 mM MgCl2, 0.1% ovalbumin, and 0.02% Tween-20).
Calcitonin (NEX422 PerkinElmer) was dissolved in assay buffer and added to the Optiplate at a final […]
prior to centrifugation (1500 rpm, 10 min). Samples were analyzed on TopCounter (Packard).
AMY3R Binding Assay. The binding assay was performed using SPA beads (RPNQ0001) from PerkinElmer and cell membranes containing either the hAMY3R or rAMY3R. BHK tk-ts 13 cells were […]
as §1, with “and cultured as described above. Membranes” for “Membranes”, “buffer containing 20 mM Na-HEPES and 10 mM EDTA (pH 7.4), and” for “buffer”
The resulting pellet was re-suspended, homogenized, and
7.4, buffer 2). The resulting pellet was re-suspended in buffer 2 and protein concentration was measured (BCA protein assay, Pierce). The homogenate was kept cold during the whole procedure.
The membranes were stored at –80 °C until use.
Membranes were mixed with SPA beads in a 1:1 ratio. The final concentration of SPA beads was 0.05 mg/well. Test compounds were dissolved in DMSO and further diluted in assay buffer (50 mM […]
rAMY (NEX448 PerkinElmer) was dissolved in assay buffer and added to the Optiplate at a final

hAMY3R [3] = molecular target: T1, hAMY3R; experiment: cAMP-responsive element luciferase reporter assay, human AMY3R; format: cell-based; set-up: expressed in transfected cells; conditions: for ratio hCTR/hAMY3R: ratio of luciferase EC50 values
[4] = bis-tris-propane buffer, pH 6, aqueous buffer
[5] = bis-tris-propane buffer, pH 6.5, aqueous buffer
[6] = bis-tris-propane buffer, pH 7, aqueous buffer
[7] = bis-tris-propane buffer, pH 7.5, aqueous buffer
[8] = bis-tris-propane buffer, pH 8, aqueous buffer
[9] = lactate buffer, pH 4, aqueous buffer
[10] = lactate buffer, pH 5, aqueous buffer
[11] = SPA binding assay, Tables S13 and S15, read-out: hAMY3R pIC50 (converted)
[12] = SPA, BHK cell membranes, 125I-rat amylin, 120 min 25 °C, read-out: hAMY3R IC50
[13] = luciferase (human receptor assay), Tables S12 and S14, read-out: hAMY3R pEC50 (converted)
[14] = luciferase (human receptor assay), BHK cells stably expressing hCTR+RAMP3 and CRE-luciferase, 3 h, 37 °C, 10% FBS, read-out: hAMY3R EC50

solubility kinetic [1, 4] [µM]	solubility kinetic [1, 5] [µM]	solubility kinetic [1, 6] [µM]	solubility kinetic [1, 7] [µM]	solubility kinetic [1, 8] [µM]	solubility kinetic [1, 9] [µM]	solubility kinetic [1, 10] [µM]	IC50 (hAMY3R [2]; [11]) [nM]	IC50 (hAMY3R [2]; [12]) [nM]	ratio hCTR/hAMY3R (hAMY3R [2])	EC50 (hAMY3R [3]; [13]) [nM]	EC50 (hAMY3R [3]; [14]) [nM]	ratio hCTR/hAMY3R (hAMY3R [3])	hAMY3R pIC50 (hAMY3R [2]; SPA binding assay, Tables S13 and S15)	hAMY3R pEC50 (hAMY3R [3]; luciferase (human receptor assay), Tables S12 and S14)	Compound
≥ 200	≥ 200	≥ 200	≥ 200	≥ 200	≥ 200	≥ 200	0.589	0.589	20	0.186	0.186	11	–	–	CC[C@H](C)[C@H](NC(=O)[C@H](C)NC(=O)CNC(=O)[C@H](Cc1ccccc1)NC(=O)[C@H](CC(N)=O)NC(=O)[C@@H]1CCCN1C(=O)[C@H](CO)NC(=O)[C@H](CO)NC(=O)[C@H](Cc1c[nH]cn1)NC(=O)[C@H](CCCNC(=N)N)NC(=O)[C@H](CC(C)C)NC(=O)[C@H](Cc1ccccc1)NC(=O)[C@H](CC(N)=O)NC(=O)[C@H](C)NC(=O)[C@H](CC(C)C)NC(=O)[C@H](CCCNC(=N)N)NC(=O)[C@H](CCC(N)=O)NC(=O)[C@@H](NC(=O)[C@H](C)NC(=O)[C@@H]1CSSC[C@H](NC(=O)[C@H](CCCCN)NC(=O)CC[C@H](NC(=O)CCCCCCCCCCCCCCCCCCC(=O)O)C(=O)O)C(=O)N[C@@H](CC(N)=O)C(=O)N[C@@H]([C@@H](C)O)C(=O)N[C@@H](C)C(=O)N[C@@H]([C@@H](C)O)C(=O)N1)[C@@H](C)O)C(=O)N1CCC[C@H]1C(=O)N[C@@H](CO)C(=O)N[C@@H](CO)C(=O)N[C@H](C(=O)N1CCC[C@H]1C(=O)N[C@H](C(=O)NCC(=O)N[C@@H](CO)C(=O)N[C@@H](CCC(=O)O)C(=O)N[C@H](C(=O)N[C@@H](Cc1ccc(O)cc1)C(N)=O)[C@@H](C)O)C(C)C)[C@@H](C)O [Peptide 11] ({C20 diacid-γGlu}-KCNTATCATQRLANFLRHSSPNFGAIPSSTPVGSETY-NH2; disulfide 2-7)
≥ 200	≥ 200	≥ 200	≥ 200	≥ 200	≥ 200	≥ 200	–	–	11	0.0468	0.047	6.7	–	–	CC[C@H](C)[C@H](NC(=O)[C@H](C)NC(=O)CNC(=O)[C@H](Cc1ccccc1)NC(=O)[C@H](CC(N)=O)NC(=O)[C@@H]1CCCN1C(=O)[C@H](CO)NC(=O)[C@H](CO)NC(=O)[C@H](Cc1c[nH]cn1)NC(=O)[C@H](CCCNC(=N)N)NC(=O)[C@H](CC(C)C)NC(=O)[C@H](Cc1ccccc1)NC(=O)[C@H](CCC(=O)O)NC(=O)[C@H](C)NC(=O)[C@H](CC(C)C)NC(=O)[C@H](CCCNC(=N)N)NC(=O)[C@H](CCC(N)=O)NC(=O)[C@@H](NC(=O)[C@H](C)NC(=O)[C@@H]1CSSC[C@H](NC(=O)[C@H](CCCCN)NC(=O)CC[C@H](NC(=O)CCCCCCCCCCCCCCCCCCC(=O)O)C(=O)O)C(=O)N[C@@H](CC(N)=O)C(=O)N[C@@H]([C@@H](C)O)C(=O)N[C@@H](C)C(=O)N[C@@H]([C@@H](C)O)C(=O)N1)[C@@H](C)O)C(=O)N1CCC[C@H]1C(=O)N[C@@H](CO)C(=O)N[C@@H](CO)C(=O)N[C@H](C(=O)N[C@@H](CC(N)=O)C(=O)N[C@H](C(=O)NCC(=O)N1CCC[C@H]1C(=O)N[C@@H](CC(N)=O)C(=O)N[C@H](C(=O)N[C@@H](Cc1ccc(O)cc1)C(N)=O)[C@@H](C)O)C(C)C)[C@@H](C)O [Peptide 12] ({C20 diacid-γGlu}-KCNTATCATQRLAEFLRHSSPNFGAIPSSTNVGPNTY-NH2; disulfide 2-7)
≥ 200	≥ 200	≥ 200	≥ 200	≥ 200	≥ 200	≥ 200	–	–	64	0.309	0.31	8.4	8.94	–	CC[C@H](C)[C@H](NC(=O)[C@H](C)NC(=O)CNC(=O)[C@H](Cc1ccccc1)NC(=O)[C@H](CC(N)=O)NC(=O)[C@@H]1CCCN1C(=O)[C@H](CO)NC(=O)[C@H](CO)NC(=O)[C@H](Cc1c[nH]cn1)NC(=O)[C@H](CCCNC(=N)N)NC(=O)[C@H](CC(C)C)NC(=O)[C@H](Cc1ccccc1)NC(=O)[C@H](CC(N)=O)NC(=O)[C@H](C)NC(=O)[C@H](CC(C)C)NC(=O)[C@H](CCCNC(=N)N)NC(=O)[C@H](CCC(N)=O)NC(=O)[C@@H](NC(=O)[C@H](C)NC(=O)[C@@H]1CSSC[C@H](NC(=O)[C@H](CCCCN)NC(=O)CC[C@H](NC(=O)CCCCCCCCCCCCCCCCCCC(=O)O)C(=O)O)C(=O)N[C@@H](CC(N)=O)C(=O)N[C@@H]([C@@H](C)O)C(=O)N[C@@H](C)C(=O)N[C@@H]([C@@H](C)O)C(=O)N1)[C@@H](C)O)C(=O)N1CCC[C@H]1C(=O)N[C@@H](CO)C(=O)N[C@@H](CO)C(=O)N[C@H](C(=O)N[C@@H](CC(N)=O)C(=O)N[C@H](C(=O)NCC(=O)N[C@@H](CO)C(=O)N[C@@H](CCCCN)C(=O)N[C@H](C(=O)N[C@@H](Cc1ccc(O)cc1)C(N)=O)[C@@H](C)O)C(C)C)[C@@H](C)O [Peptide 13]
≥ 200	≥ 200	≥ 200	≥ 200	≥ 200	≥ 200	≥ 200	0.891	0.885	48	–	–	15	–	9.44	CC[C@H](C)[C@H](NC(=O)[C@H](C)NC(=O)CNC(=O)[C@H](Cc1ccccc1)NC(=O)[C@H](CC(N)=O)NC(=O)[C@@H]1CCCN1C(=O)[C@H](CO)NC(=O)[C@H](CO)NC(=O)[C@H](Cc1c[nH]cn1)NC(=O)[C@H](CCCNC(=N)N)NC(=O)[C@H](CC(C)C)NC(=O)[C@H](Cc1ccccc1)NC(=O)[C@H](CC(N)=O)NC(=O)[C@H](C)NC(=O)[C@H](CC(C)C)NC(=O)[C@H](CCCNC(=N)N)NC(=O)[C@H](CCC(N)=O)NC(=O)[C@@H](NC(=O)[C@H](C)NC(=O)[C@@H]1CSSC[C@H](NC(=O)[C@@H](N)CCCCNC(=O)CC[C@H](NC(=O)CCCCCCCCCCCCCCCCCCC(=O)O)C(=O)O)C(=O)N[C@@H](CC(N)=O)C(=O)N[C@@H]([C@@H](C)O)C(=O)N[C@@H](C)C(=O)N[C@@H]([C@@H](C)O)C(=O)N1)[C@@H](C)O)C(=O)N1CCC[C@H]1C(=O)N[C@@H](CO)C(=O)N[C@@H](CO)C(=O)N[C@H](C(=O)N[C@@H](CC(N)=O)C(=O)N[C@H](C(=O)NCC(=O)N[C@@H](CO)C(=O)N[C@@H](CCCCN)C(=O)N[C@H](C(=O)N[C@@H](Cc1ccc(O)cc1)C(N)=O)[C@@H](C)O)C(C)C)[C@@H](C)O [Peptide 14]
